Source: US20080009418A1, “Selective Inhibitors” (Alchemia LTD., priority 2004, published 2008)

Columns and labels:
Human μ-opioid (MOP) = target: T1, Human μ-opioid (MOP) (Homo sapiens, UniProt P35372); assay: Radioligand binding, human μ-opioid (MOP) membranes, FlashPlate, [3H]-Naloxone; settings: compound at 10 μM, [3H]-Naloxone
T1 construct: purchased Perkin Elmer Biosignal
Procedure, shortened: (§1)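 Cloned human receptor membranes were coated onto FlashPlate wells and incubated with radioligand and compound (added from a 0.5 mM DMSO daughter plate) for 1 hour at room temperature in the dark. Scintillation counting gave percent inhibition, with DMSO defining total and reference ligand defining non-specific binding.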

Human melanocortin (MC5) = target: T2, Human melanocortin (MC5) (Homo sapiens, UniProt P33032); assay: Radioligand binding, human melanocortin MC5 membranes, FlashPlate, [125I]-NDP-αMSH; settings: compound at 10 μM, [125I]-NDP-αMSH
T2 construct: purchased Perkin Elmer Biosignal
T2 sequence (P33032 whole entry): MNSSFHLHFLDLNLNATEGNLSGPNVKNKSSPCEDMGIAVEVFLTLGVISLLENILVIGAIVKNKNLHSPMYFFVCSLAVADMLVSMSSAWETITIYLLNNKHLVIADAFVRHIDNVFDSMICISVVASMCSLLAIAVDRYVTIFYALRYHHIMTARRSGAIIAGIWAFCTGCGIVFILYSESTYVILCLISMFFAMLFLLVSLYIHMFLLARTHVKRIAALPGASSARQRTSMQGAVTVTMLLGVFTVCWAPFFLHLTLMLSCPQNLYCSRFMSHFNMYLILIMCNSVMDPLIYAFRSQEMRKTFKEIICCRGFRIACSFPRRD
Procedure, shortened: as §1

Mouse urotensin (mUR2) = target: T3, Mouse urotensin (mUR2) (Mus musculus, UniProt Q8VIH9); assay: Radioligand binding, mouse urotensin mUR2 membranes, FlashPlate, [125I]-Urotensin II; settings: compound at 10 μM, [125I]-Urotensin II
T3 construct: purchased Perkin Elmer Biosignal
T3 sequence (Q8VIH9 1-385): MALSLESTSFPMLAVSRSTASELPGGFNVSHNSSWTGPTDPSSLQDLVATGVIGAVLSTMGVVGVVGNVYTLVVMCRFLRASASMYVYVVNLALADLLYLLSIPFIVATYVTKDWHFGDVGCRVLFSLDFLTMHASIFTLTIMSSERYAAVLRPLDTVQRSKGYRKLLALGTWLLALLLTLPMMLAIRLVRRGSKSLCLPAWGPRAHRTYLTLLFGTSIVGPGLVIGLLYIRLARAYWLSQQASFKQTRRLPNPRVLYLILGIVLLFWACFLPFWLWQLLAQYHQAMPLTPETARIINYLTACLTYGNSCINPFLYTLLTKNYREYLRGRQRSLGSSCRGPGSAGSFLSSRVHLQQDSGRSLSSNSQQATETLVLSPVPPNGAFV
Procedure, shortened: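 Cloned mouse urotensin (mUR2) receptor membranes from Perkin Elmer Biosignal were immobilized in FlashPlate microplates using a proprietary coating. Each well got 19.5 μl buffer, then 0.5 μl of DMSO, reference ligand, or compound. Adding 5 μl of [125I]-Urotensin II, diluted to 5× final concentration in binding buffer, started binding. Plates were sealed with TopSeal-A and incubated 1 hour at room temperature in the dark. Wells were counted for 30 seconds each on a TopCount after a 60-second delay, and percentage inhibition was calculated.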

Human δ-opioid (DOP) = target: T4, Human δ-opioid (DOP) (Homo sapiens, UniProt P41143); assay: Radioligand binding, human δ-opioid (DOP) membranes, FlashPlate, [3H]-Bremazocine; settings: compound at 10 μM, [3H]-Bremazocine
T4 construct: purchased Perkin Elmer Biosignal
T4 sequence (P41143 whole entry): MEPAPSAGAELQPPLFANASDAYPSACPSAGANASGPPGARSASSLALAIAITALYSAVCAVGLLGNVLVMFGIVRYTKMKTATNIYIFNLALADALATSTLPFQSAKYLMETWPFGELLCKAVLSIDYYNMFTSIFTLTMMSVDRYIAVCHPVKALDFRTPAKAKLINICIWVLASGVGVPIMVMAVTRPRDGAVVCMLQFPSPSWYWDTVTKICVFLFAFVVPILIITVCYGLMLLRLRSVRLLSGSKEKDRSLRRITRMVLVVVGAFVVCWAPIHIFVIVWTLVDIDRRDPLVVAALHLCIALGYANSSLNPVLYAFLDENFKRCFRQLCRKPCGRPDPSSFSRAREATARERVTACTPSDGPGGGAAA
Procedure, shortened: as §1

Human κ-Opioid (KOP) = target: T5, Human κ-Opioid (KOP) (Homo sapiens, UniProt P41145); assay: Radioligand binding, human κ-opioid (KOP) membranes, filtration, [3H]-Diprenorphine; settings: compound at 10 μM, [3H]-Diprenorphine
T5 construct: purchased Perkin Elmer Biosignal
T5 sequence (P41145 whole entry): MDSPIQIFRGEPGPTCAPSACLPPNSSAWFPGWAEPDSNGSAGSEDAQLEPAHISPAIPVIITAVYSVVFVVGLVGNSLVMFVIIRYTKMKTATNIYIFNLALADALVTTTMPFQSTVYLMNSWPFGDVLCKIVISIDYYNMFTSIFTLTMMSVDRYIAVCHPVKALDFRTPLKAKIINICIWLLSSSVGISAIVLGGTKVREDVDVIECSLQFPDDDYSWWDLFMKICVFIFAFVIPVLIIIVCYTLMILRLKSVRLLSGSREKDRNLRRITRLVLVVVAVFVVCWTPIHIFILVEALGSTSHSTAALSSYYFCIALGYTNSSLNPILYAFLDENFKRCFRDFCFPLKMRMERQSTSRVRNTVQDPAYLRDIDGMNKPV
Procedure, shortened: (§2)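 Membranes from cloned human receptors were incubated with compound and radioligand for 1 hour at room temperature. Bound ligand was collected on 0.3% PEI-soaked filters, washed with cold 50 mM Tris-HCl pH 7.4, and counted by scintillation. Percent inhibition was computed against DMSO totals and reference-ligand nonspecific wells.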

Human opioid (ORL1) = target: T6, Human opioid (ORL1) (Homo sapiens, UniProt P41146); assay: Radioligand binding, human opioid ORL1 membranes, FlashPlate, [125I]-Nociceptin; settings: compound at 10 μM, [125I]-Nociceptin
T6 construct: purchased Perkin Elmer Biosignal
T6 sequence (P41146 whole entry): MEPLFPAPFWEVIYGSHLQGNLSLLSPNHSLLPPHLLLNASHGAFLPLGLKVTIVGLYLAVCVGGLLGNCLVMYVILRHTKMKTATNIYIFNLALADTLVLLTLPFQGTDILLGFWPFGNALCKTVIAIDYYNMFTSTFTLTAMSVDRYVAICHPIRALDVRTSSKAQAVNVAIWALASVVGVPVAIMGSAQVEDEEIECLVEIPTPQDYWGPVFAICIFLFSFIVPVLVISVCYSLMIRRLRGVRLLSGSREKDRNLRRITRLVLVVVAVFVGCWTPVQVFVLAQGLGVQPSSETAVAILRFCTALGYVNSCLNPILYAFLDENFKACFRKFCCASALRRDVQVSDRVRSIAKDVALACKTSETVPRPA
Procedure, shortened: as §1

Human Melanocortin (MC4) = target: T7, Human Melanocortin (MC4) (Homo sapiens, UniProt P32245); assay: Radioligand binding, human melanocortin MC4 membranes, FlashPlate, [125I]-NDP-αMSH; settings: compound at 10 μM, [125I]-NDP-αMSH
T7 construct: purchased Perkin Elmer Biosignal
T7 sequence (P32245 whole entry): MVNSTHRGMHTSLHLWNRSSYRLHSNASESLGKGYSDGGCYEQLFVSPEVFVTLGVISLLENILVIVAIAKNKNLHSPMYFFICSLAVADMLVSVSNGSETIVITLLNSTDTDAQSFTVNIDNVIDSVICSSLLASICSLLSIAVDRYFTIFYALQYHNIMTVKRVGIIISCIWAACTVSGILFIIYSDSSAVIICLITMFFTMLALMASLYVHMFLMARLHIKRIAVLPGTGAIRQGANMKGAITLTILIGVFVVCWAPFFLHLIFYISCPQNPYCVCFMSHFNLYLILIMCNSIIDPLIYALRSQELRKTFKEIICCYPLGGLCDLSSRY
Procedure, shortened: as §1

Human Melanocortin (MC3) = target: T8, Human Melanocortin (MC3) (Homo sapiens, UniProt P41968); assay: Radioligand binding, human melanocortin MC3 membranes, FlashPlate, [125I]-NDP-αMSH; settings: compound at 10 μM, [125I]-NDP-αMSH
T8 construct: purchased Perkin Elmer Biosignal
T8 sequence (P41968 whole entry): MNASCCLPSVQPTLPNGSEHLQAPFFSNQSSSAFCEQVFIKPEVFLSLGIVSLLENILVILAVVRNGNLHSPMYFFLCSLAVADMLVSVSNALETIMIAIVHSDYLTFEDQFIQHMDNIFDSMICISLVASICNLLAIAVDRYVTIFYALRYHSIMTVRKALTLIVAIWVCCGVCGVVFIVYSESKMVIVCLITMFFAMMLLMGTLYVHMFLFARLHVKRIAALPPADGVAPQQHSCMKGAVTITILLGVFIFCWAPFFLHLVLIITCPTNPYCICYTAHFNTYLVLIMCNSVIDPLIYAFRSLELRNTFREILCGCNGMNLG
Procedure, shortened: as §1

[1] = target: T9, Human melanin-concentrating hormone (MCH1) (Homo sapiens, UniProt Q99705); assay: Radioligand binding, human melanin-concentrating hormone MCH1 membranes, FlashPlate, [125I]-S36057; settings: compound at 10 μM; for A6: inhibition of radioligand binding, human melanin-concentrating hormone (MCH1): [125I]-S36057
T9 construct: purchased Perkin Elmer Biosignal
T9 sequence (Q99705 whole entry): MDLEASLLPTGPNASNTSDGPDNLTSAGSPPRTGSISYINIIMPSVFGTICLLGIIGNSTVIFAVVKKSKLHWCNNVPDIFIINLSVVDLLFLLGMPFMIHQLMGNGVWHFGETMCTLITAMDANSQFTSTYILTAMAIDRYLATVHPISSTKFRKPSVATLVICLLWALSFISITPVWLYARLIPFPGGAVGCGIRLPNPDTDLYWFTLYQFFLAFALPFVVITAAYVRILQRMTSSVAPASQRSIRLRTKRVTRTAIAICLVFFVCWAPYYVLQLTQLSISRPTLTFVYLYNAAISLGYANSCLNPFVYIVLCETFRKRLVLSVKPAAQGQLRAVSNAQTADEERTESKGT
Procedure, shortened: as §1

Human neurokinin (NK1) = target: T10, Human neurokinin (NK1) (Homo sapiens, UniProt P25103); assay: Radioligand binding, human neurokinin NK1 membranes, filtration, [125I]-Substance P; settings: compound at 10 μM, [125I]-Substance P
T10 construct: purchased Perkin Elmer Biosignal
T10 sequence (P25103 whole entry): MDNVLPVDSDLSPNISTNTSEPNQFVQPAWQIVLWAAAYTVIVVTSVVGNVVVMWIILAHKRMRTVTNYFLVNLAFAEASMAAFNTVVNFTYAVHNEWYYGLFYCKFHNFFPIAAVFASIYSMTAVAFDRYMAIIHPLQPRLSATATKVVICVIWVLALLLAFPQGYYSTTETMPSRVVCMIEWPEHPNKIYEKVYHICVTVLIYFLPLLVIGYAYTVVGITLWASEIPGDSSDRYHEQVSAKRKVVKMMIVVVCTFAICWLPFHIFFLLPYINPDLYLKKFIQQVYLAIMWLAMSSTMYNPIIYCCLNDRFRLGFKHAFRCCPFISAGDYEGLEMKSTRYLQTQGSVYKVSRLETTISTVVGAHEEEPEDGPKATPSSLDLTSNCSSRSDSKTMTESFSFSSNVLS
Procedure, shortened: as §2

[2] = target: T11, Human neuropeptide Y (NPY-Y1) (Homo sapiens, UniProt P25929); assay: Radioligand binding, human neuropeptide Y NPY-Y1 membranes, FlashPlate, [125I]-PYY; settings: compound at 10 μM, [125I]-PYY
T11 construct: purchased Perkin Elmer Biosignal
T11 sequence (P25929 1-384): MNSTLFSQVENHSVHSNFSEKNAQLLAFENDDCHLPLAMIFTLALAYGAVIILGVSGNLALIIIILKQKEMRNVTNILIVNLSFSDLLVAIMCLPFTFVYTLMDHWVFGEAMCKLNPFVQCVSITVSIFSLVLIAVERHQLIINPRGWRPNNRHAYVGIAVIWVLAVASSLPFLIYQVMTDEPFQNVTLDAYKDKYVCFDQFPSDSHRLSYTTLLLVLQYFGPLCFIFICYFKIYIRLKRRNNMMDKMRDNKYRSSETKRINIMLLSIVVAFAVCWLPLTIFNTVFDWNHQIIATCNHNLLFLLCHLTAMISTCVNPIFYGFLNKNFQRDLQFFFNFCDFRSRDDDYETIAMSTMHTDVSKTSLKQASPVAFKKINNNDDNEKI
Procedure, shortened: as §1

T1 sequence (P35372 whole entry): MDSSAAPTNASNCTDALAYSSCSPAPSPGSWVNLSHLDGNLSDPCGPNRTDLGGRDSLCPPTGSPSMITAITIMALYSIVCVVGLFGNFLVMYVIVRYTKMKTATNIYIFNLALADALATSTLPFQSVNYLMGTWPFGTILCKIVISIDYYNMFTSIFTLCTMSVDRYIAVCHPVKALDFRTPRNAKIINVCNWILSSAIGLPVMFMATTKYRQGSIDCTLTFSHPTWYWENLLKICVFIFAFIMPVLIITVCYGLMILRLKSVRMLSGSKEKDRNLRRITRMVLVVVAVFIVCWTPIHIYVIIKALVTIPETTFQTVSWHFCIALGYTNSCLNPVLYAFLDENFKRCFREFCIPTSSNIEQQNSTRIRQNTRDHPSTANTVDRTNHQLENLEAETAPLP

SMILES | A5: inhibition of radioligand binding (Human melanocortin (MC5); human MC5 membranes) | A11: inhibition of radioligand binding (Mouse urotensin (mUR2); mouse mUR2 membranes) | A1: inhibition of radioligand binding (Human δ-opioid (DOP); human DOP membranes) | A10: inhibition of radioligand binding (Human opioid (ORL1); human ORL1 membranes, 10 µM) | A3: inhibition of radioligand binding (Human Melanocortin (MC3); human MC3 membranes) | A8: inhibition of radioligand binding (Human neurokinin (NK1); human NK1 membranes) | A9: inhibition of radioligand binding ([2]; human NPY-Y1 membranes) | A7: inhibition of radioligand binding, human μ-opioid (MOP) (Human μ-opioid (MOP)) | A5: inhibition of radioligand binding, human melanocortin (MC5) (Human melanocortin (MC5)) | A11: inhibition of radioligand binding, mouse urotensin (mUR2) (Mouse urotensin (mUR2)) | A1: inhibition of radioligand binding, human δ-opioid (DOP) (Human δ-opioid (DOP)) | A2: inhibition of radioligand binding, human κ-opioid (KOP) (Human κ-Opioid (KOP)) | A10: inhibition of radioligand binding, human opioid (ORL1) (Human opioid (ORL1)) | A4: inhibition of radioligand binding, human melanocortin (MC4) (Human Melanocortin (MC4)) | A3: inhibition of radioligand binding, human melanocortin (MC3) (Human Melanocortin (MC3)) | A6: inhibition of radioligand binding, human melanin-concentrating hormone (MCH1) [1] | A8: inhibition of radioligand binding, human neurokinin (NK1) (Human neurokinin (NK1)) | A9: inhibition of radioligand binding, human neuropeptide Y (NPY-Y1) [2] | further results
NCCCC(=O)NC1C(OCc2ccc3ccccc3c2)OC(COCc2ccc(Cl)cc2)C(O)C1OCc1ccc2ccccc2c1 (stereo not shown) [compound 395] | + (“+” indicates greater than 50% inhibition at 10 μM) | − (“−” indicates less than 50% inhibition at 10 μM) | − (“−” indicates less than 50% inhibition at 10 μM) | + (“+” indicates greater than 50% inhibition at 10 μM) | + (“+” indicates greater than 50% inhibition at 10 μM) | + (“+” indicates greater than 50% inhibition at 10 μM) | − (“−” indicates less than 50% inhibition at 10 μM) | – | – | – | – | – | – | – | – | – | – | – | A7: inhibition of radioligand binding (Human μ-opioid (MOP); human MOP membranes): − (“−” indicates less than 50% inhibition at 10 μM); A2: inhibition of radioligand binding (Human κ-Opioid (KOP); human KOP membranes, 10 µM): − (“−” indicates less than 50% inhibition at 10 μM); A4: inhibition of radioligand binding (Human Melanocortin (MC4); human MC4 membranes): + (“+” indicates greater than 50% inhibition at 10 μM); A6: inhibition of radioligand binding ([1]; [125I]-S36057, human MCH1 membranes, 10 µM): − (“−” indicates less than 50% inhibition at 10 μM)
CSC1OC(COCc2ccc(Cl)cc2)C(O)C(OCc2ccc3ccccc3c2)C1NC(=O)CN (stereo not shown) [compound 306] | – | – | – | – | – | – | – | − (“−” indicates less than 50% inhibition at 10 μM) | − (“−” indicates less than 50% inhibition at 10 μM) | − (“−” indicates less than 50% inhibition at 10 μM) | − (“−” indicates less than 50% inhibition at 10 μM) | − (“−” indicates less than 50% inhibition at 10 μM) | − (“−” indicates less than 50% inhibition at 10 μM) | − (“−” indicates less than 50% inhibition at 10 μM) | − (“−” indicates less than 50% inhibition at 10 μM) | − (“−” indicates less than 50% inhibition at 10 μM) | + (“+” indicates greater than 50% inhibition at 10 μM) | − (“−” indicates less than 50% inhibition at 10 μM) | –
CO[C@H]1[C@H](O)[C@@H](COCc2ccc3ccccc3c2)OC(OCc2ccc(Cl)cc2)[C@@H]1NC(=O)C(N)CN (stereo partly shown) [compound 351] | – | – | – | – | – | – | – | − (“−” indicates less than 50% inhibition at 10 μM) | − (“−” indicates less than 50% inhibition at 10 μM) | − (“−” indicates less than 50% inhibition at 10 μM) | − (“−” indicates less than 50% inhibition at 10 μM) | − (“−” indicates less than 50% inhibition at 10 μM) | − (“−” indicates less than 50% inhibition at 10 μM) | − (“−” indicates less than 50% inhibition at 10 μM) | − (“−” indicates less than 50% inhibition at 10 μM) | − (“−” indicates less than 50% inhibition at 10 μM) | + (“+” indicates greater than 50% inhibition at 10 μM) | − (“−” indicates less than 50% inhibition at 10 μM) | –
NCCCC(=O)NC1C(OCc2ccc3ccccc3c2)OC(COCc2ccccc2)C(O)C1OCc1ccccc1 (stereo not shown) [compound 397] | − (“−” indicates less than 50% inhibition at 10 μM) | − (“−” indicates less than 50% inhibition at 10 μM) | − (“−” indicates less than 50% inhibition at 10 μM) | + (“+” indicates greater than 50% inhibition at 10 μM) | − (“−” indicates less than 50% inhibition at 10 μM) | + (“+” indicates greater than 50% inhibition at 10 μM) | − (“−” indicates less than 50% inhibition at 10 μM) | – | – | – | – | – | – | – | – | – | – | – | A7: inhibition of radioligand binding (Human μ-opioid (MOP); human MOP membranes, 10 µM): − (“−” indicates less than 50% inhibition at 10 μM); A2: inhibition of radioligand binding (Human κ-Opioid (KOP); human KOP membranes): − (“−” indicates less than 50% inhibition at 10 μM); A4: inhibition of radioligand binding (Human Melanocortin (MC4); human MC4 membranes, 10 µM): + (“+” indicates greater than 50% inhibition at 10 μM); A6: inhibition of radioligand binding ([1]; [125I]-S36057, human MCH1 membranes): − (“−” indicates less than 50% inhibition at 10 μM)
CSC1O[C@H](COCc2ccc(-c3ccccc3)cc2)[C@@H](O)[C@@H](OCc2ccc(Cl)cc2)[C@H]1NC(=O)CCN (stereo partly shown) [compound 276] | – | – | – | – | – | – | – | – | – | – | – | – | – | – | – | – | – | – | A7: inhibition of radioligand binding (Human μ-opioid (MOP); FlashPlate): − (“−” indicates less than 50% inhibition at 10 μM); A5: inhibition of radioligand binding (Human melanocortin (MC5); FlashPlate): − (“−” indicates less than 50% inhibition at 10 μM); A11: inhibition of radioligand binding (Mouse urotensin (mUR2); FlashPlate): − (“−” indicates less than 50% inhibition at 10 μM); A1: inhibition of radioligand binding (Human δ-opioid (DOP); FlashPlate): − (“−” indicates less than 50% inhibition at 10 μM); A2: inhibition of radioligand binding (Human κ-Opioid (KOP); filtration): − (“−” indicates less than 50% inhibition at 10 μM); A10: inhibition of radioligand binding (Human opioid (ORL1); FlashPlate): − (“−” indicates less than 50% inhibition at 10 μM); A4: inhibition of radioligand binding (Human Melanocortin (MC4); FlashPlate): − (“−” indicates less than 50% inhibition at 10 μM); A3: inhibition of radioligand binding (Human Melanocortin (MC3); FlashPlate): − (“−” indicates less than 50% inhibition at 10 μM); A6: inhibition of radioligand binding ([1]; [125I]-S36057, FlashPlate): − (“−” indicates less than 50% inhibition at 10 μM); A8: inhibition of radioligand binding (Human neurokinin (NK1); filtration): + (“+” indicates greater than 50% inhibition at 10 μM); A9: inhibition of radioligand binding ([2]; FlashPlate): − (“−” indicates less than 50% inhibition at 10 μM)
